Laboratory results from ChEMBL document CHEMBL4311992, “Discovery of 3-(((9H-purin-6-yl)amino)methyl)-4,6-dimethylpyridin-2(1H)-one derivatives as novel tubulin polymerization inhibitors for treatment of cancer” (Eur J Med Chem, 2019).
Calls of active or inactive are those of the source. The calls are words filed in the database; no cut-off is given here.

Tests used:
[1] = target: Serine/threonine-protein kinase SIK2 (Homo sapiens) (UniProt Q9H0K1); assay: Inhibition of human SIK2 (1 to 276 residues) using KKKVSRSGLYRSPSMPENLNRPR as substrate measured after 40 mins in presence of [gamma33P]ATP by scintillation counting method; parameters: scale not given: the % may be the effect or the level left
Serine/threonine-protein kinase SIK2 (Homo sapiens), sequence (Q9H0K1 whole entry, looked up, the tested form may be a part): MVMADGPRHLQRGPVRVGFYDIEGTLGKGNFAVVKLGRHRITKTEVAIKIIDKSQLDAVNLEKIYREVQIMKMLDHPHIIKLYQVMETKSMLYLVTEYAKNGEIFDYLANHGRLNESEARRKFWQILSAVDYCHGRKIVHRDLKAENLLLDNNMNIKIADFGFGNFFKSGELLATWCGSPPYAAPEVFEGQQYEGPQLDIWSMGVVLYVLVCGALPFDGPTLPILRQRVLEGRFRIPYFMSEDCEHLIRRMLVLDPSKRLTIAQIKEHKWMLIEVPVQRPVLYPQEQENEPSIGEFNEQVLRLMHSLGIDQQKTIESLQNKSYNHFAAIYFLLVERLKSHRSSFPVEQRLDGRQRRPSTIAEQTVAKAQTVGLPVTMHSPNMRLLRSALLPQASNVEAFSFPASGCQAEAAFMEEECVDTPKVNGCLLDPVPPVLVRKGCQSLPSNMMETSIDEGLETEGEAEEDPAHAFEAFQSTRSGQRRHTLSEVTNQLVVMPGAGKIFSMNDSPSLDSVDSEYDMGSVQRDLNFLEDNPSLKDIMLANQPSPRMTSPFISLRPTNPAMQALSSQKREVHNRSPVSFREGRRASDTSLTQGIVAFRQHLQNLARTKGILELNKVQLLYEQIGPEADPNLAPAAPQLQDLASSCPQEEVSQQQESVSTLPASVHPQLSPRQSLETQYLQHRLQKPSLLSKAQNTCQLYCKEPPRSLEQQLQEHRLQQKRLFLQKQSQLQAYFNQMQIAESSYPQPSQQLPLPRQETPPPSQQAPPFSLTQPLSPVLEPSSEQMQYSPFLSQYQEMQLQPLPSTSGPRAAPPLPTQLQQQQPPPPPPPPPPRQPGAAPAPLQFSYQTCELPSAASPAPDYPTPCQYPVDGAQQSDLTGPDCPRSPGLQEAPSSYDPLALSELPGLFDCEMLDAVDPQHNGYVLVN

[2] = target: Serine/threonine-protein kinase Sgk3 (Homo sapiens) (UniProt Q96BR1); assay: Inhibition of human SGK3 (119 to end residues) using GRPRTSSFAEGKK as substrate measured after 40 mins in presence of [gamma33P]ATP by scintillation counting method; parameters: scale not given: the % may be the effect or the level left
Serine/threonine-protein kinase Sgk3 (Homo sapiens), sequence (Q96BR1 whole entry): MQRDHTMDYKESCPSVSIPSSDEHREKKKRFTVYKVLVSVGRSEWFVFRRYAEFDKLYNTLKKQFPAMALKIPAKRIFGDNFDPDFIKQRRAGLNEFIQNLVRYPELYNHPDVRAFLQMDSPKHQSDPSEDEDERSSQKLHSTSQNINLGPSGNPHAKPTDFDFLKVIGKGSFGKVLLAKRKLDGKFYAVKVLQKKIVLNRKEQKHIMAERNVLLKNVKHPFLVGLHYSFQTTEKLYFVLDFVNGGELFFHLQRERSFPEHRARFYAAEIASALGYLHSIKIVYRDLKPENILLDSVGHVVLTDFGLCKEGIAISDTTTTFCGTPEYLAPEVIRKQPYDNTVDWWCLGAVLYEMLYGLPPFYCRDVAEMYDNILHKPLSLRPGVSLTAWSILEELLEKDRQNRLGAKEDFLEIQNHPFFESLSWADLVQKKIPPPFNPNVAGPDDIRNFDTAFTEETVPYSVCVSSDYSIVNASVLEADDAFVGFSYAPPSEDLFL

[3] = target: Protein kinase C beta type (Homo sapiens) (UniProt P05771); assay: Inhibition of recombinant human PKCbeta1 (2 to end residues) assessed as residual activity at 10 uM using histone H1 as substrate measured after 40 mins in presence of [gamma33P]ATP by scintillation counting method
Protein kinase C beta type (Homo sapiens), sequence (P05771 2-671 limits assumed): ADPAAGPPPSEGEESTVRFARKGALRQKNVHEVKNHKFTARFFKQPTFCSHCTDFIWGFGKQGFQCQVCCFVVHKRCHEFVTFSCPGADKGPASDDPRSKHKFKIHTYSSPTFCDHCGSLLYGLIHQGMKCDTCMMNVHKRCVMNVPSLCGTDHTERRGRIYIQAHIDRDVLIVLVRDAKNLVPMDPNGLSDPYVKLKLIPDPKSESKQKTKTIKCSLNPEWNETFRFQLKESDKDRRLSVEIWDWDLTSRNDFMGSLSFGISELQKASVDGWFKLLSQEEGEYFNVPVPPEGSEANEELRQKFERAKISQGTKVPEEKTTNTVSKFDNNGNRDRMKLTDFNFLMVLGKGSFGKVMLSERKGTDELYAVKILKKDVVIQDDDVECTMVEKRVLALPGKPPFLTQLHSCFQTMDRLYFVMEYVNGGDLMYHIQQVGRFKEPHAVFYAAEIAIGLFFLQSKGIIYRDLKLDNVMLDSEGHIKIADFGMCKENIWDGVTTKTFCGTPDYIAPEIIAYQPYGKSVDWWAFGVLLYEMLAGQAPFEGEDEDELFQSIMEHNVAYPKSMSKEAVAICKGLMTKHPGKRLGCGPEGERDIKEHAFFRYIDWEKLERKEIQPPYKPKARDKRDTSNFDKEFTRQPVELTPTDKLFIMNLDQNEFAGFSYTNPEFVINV

[4] = target: Mitogen-activated protein kinase kinase kinase 3 (Homo sapiens) (UniProt Q99759); assay: Inhibition of recombinant full-length human MEKK3 assessed as residual activity at 10 uM using myelin basic protein as substrate measured after 40 mins in presence of [gamma33P]ATP by scintillation counting method
[5] = target: Cyclin-dependent kinase 13/Cyclin-K (Homo sapiens) (UniProt Q14004+O75909); assay: Inhibition of recombinant full length human CDK13/cyclinK assessed as residual activity at 10 uM using RSRSRSRSRSRSRSR as substrate measured after 120 mins in presence of [gamma33P]ATP by scintillation counting method; assay type: protein-complex assay
[6] = target: Tau-tubulin kinase 1 (Homo sapiens) (UniProt Q5TCY1); assay: Inhibition of human TTBK1 (1 to 479 residues) using Casein as substrate measured after 40 mins in presence of [gamma33P]ATP by scintillation counting method; parameters: scale not given: the % may be the effect or the level left
[7] = target: Focal adhesion kinase 1 (Homo sapiens) (UniProt Q05397); assay: Inhibition of recombinant human FAK (411 to 686 residues) assessed as residual activity at 10 uM using EEEEYEEEEEEYYIIEEEEEEYEEEEEEYYEEEEEEKKKK as substrate measured after 40 mins in presence of [gamma33P]ATP by scintillation counting method
[8] = tested on: Receptor tyrosine-protein kinase erbB-2 (Homo sapiens), P04626 [G778D]; assay: Inhibition of recombinant human ErbB2 G778D mutant (676 to end residues) assessed as residual activity at 10 uM using poly (Glu, Tyr) 4:1 as substrate measured after 40 mins in presence of [gamma33P]ATP by scintillation counting method
[9] = target: Tyrosine-protein kinase CSK (Homo sapiens) (UniProt P41240); assay: Inhibition of full-length recombinant human CSK assessed as residual activity at 10 uM using poly(Glu, Tyr) 4:1 as substrate measured after 40 mins in presence of [gamma33P]ATP by scintillation counting method
Tyrosine-protein kinase CSK (Homo sapiens), sequence (P41240 2-450 limits assumed): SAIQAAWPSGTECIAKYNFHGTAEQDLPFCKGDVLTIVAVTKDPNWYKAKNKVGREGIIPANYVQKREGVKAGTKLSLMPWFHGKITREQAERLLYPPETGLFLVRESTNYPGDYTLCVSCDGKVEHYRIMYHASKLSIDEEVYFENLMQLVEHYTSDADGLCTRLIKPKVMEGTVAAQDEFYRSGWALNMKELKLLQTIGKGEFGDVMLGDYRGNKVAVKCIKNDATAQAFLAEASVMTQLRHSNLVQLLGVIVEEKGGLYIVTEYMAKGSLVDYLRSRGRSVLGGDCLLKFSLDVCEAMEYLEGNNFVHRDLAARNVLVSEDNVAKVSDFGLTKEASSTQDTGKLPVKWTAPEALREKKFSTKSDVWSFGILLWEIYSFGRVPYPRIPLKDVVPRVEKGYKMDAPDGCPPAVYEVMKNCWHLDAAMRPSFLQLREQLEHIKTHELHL

[10] = organism: Mus musculus; assay: Inhibition of recombinant mouse ABL L782P/G784R/W785L/L786V mutant (27 to end residues) assessed as residual activity at 10 uM using EAIYAAPFAKKK as substrate measured after 40 mins in presence of [gamma33P]ATP by scintillation counting method
[11] = target: Tubulin (Homo sapiens) (UniProt P68371+Q9H4B7+P0DPH7+P68366+Q13509+Q71U36+P04350+Q3ZCM7+P07437+P68363+Q9BQE3+Q6PEY2+Q13885+Q9BVA1+Q9BUF5); assay: Disruption of microtubule network in human HCT116 cells assessed as microtubule condensation at 50 nM incubated for 18 hrs by FITC/DAPI staining-based confocal microscopic analysis; assay type: cell-based
[12] = organism: Mus musculus; assay: Inhibition of recombinant mouse ARG M982V/A562 mutant (27 to end residues) assessed as residual activity at 10 uM using EAIYAAPFAKKK as substrate measured after 40 mins in presence of [gamma33P]ATP by scintillation counting method
[13] = target: CDK3/Cyclin E (Homo sapiens) (UniProt P24864+Q00526); assay: Inhibition of recombinant full-length human CDK3/cyclinE assessed as residual activity at 10 uM using histone H1 as substrate measured after 40 mins in presence of [gamma33P]ATP by scintillation counting method; assay type: protein-complex assay
[14] = tested on: HCT-116; assay: Induction of apoptosis in human HCT116 cells assessed as early apoptotic cells at 25 nM measured after 48 hrs by Annexin V-FITC/propidium iodide staining-based flow cytometry (reference value: 0.418%); assay type: functional
[15] = tested on: Discoidin domain-containing receptor 2 (Homo sapiens), Q16832 [UNDEFINED MUTATION]; assay: Inhibition of recombinant human DDR2 S642A mutant (467 to end residues) assessed as residual activity at 10 uM using KKSRGDYMTMQIG as substrate measured after 40 mins in presence of [gamma33P]ATP by scintillation counting method
Discoidin domain-containing receptor 2 (Homo sapiens), Q16832 [UNDEFINED MUTATION], sequence (Q16832 whole entry, looked up, stated change not applied, the tested form may be a part): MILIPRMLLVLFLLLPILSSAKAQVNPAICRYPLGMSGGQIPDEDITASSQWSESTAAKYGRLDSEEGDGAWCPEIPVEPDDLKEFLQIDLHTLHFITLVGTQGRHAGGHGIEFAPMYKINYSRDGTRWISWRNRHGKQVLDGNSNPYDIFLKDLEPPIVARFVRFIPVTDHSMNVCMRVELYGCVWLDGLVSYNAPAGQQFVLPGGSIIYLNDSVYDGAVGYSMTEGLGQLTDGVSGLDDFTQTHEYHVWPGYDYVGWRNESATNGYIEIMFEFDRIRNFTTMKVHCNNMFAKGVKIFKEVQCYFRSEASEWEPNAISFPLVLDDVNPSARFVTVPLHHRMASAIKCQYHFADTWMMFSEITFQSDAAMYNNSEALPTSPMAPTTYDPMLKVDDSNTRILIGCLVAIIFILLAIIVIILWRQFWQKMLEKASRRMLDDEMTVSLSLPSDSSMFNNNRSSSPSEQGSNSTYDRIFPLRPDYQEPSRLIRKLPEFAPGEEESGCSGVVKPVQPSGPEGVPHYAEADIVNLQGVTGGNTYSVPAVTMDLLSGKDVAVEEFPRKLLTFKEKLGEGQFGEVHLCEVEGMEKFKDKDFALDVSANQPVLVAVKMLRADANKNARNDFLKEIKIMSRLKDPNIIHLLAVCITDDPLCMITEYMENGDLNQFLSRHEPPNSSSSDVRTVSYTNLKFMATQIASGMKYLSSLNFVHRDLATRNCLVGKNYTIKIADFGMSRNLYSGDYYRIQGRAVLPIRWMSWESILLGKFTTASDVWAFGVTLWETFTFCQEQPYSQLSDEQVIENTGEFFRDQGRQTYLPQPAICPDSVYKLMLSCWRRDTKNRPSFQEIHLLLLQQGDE

[16] = target: Serine/threonine-protein kinase MRCK alpha (Homo sapiens) (UniProt Q5VT25); assay: Inhibition of recombinant human MRCKalpha (1 to 473 residues) assessed as residual activity at 10 uM using KKRNRTLTV as substrate measured after 40 mins in presence of [gamma33P]ATP by scintillation counting method
[17] = target: Serine/threonine-protein kinase 4 (Homo sapiens) (UniProt Q13043); assay: Inhibition of recombinant full-length human MST1 assessed as residual activity at 10 uM using KKSRGDYMTMQIG as substrate measured after 40 mins in presence of [gamma33P]ATP by scintillation counting method
[18] = target: Eukaryotic translation initiation factor 2-alpha kinase 3 (Homo sapiens) (UniProt Q9NZJ5); assay: Inhibition of recombinant human PEK (536 to end residues) assessed as residual activity at 10 uM using RSRSRSRSRSRSRSR as substrate measured after 40 mins in presence of [gamma33P]ATP by scintillation counting method
Eukaryotic translation initiation factor 2-alpha kinase 3 (Homo sapiens), sequence (Q9NZJ5 whole entry): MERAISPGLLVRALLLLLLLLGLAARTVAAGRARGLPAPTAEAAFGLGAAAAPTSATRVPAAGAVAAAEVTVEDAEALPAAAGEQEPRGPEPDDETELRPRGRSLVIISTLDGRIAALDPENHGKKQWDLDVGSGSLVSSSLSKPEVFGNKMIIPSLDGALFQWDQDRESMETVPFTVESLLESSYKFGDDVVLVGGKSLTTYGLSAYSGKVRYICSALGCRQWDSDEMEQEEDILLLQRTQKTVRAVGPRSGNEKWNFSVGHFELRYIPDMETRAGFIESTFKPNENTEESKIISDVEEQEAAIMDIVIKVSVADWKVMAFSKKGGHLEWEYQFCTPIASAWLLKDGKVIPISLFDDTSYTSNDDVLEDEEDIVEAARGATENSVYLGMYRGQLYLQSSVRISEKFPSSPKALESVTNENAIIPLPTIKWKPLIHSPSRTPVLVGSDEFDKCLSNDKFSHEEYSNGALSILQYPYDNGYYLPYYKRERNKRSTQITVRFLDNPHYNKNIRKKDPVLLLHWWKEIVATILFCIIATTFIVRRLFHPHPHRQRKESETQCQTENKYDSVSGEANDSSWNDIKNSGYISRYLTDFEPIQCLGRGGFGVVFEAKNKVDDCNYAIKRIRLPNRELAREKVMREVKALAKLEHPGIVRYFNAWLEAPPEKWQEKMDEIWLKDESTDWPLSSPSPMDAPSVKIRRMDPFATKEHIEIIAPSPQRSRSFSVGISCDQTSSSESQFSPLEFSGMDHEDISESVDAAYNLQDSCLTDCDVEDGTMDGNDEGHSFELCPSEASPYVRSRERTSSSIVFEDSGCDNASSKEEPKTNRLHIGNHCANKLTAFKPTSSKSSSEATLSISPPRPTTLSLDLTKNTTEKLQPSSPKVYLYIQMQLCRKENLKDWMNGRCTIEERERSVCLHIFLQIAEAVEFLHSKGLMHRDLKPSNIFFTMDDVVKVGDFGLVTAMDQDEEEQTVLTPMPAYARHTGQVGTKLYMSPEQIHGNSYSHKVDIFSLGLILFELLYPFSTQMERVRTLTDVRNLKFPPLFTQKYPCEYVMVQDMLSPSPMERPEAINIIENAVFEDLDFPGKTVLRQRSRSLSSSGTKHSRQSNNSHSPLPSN

[19] = target: cAMP-dependent protein kinase catalytic subunit PRKX (Homo sapiens) (UniProt P51817); assay: Inhibition of recombinant full-length human PrKX assessed as residual activity at 10 uM using RRRLSFAEPG as substrate measured after 40 mins in presence of [gamma33P]ATP by scintillation counting method
cAMP-dependent protein kinase catalytic subunit PRKX (Homo sapiens), sequence (P51817 whole entry, the tested form may be a part): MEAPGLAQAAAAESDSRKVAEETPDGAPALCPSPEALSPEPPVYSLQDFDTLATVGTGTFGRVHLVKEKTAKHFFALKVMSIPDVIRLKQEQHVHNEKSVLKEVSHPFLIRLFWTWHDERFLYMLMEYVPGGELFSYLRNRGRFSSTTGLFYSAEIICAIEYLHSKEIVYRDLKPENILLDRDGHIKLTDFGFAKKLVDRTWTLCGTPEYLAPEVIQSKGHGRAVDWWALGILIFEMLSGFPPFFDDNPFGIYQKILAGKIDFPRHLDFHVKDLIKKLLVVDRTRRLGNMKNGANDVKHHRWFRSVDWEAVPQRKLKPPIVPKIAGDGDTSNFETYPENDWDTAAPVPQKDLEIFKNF

[20] = target: Proto-oncogene tyrosine-protein kinase Src (Homo sapiens) (UniProt P12931); assay: Inhibition of human Src (1 to 530 residues) using GGEEEEYFELVKKKK as substrate measured after 40 mins in presence of [gamma33P]ATP by scintillation counting method; parameters: scale not given: the % may be the effect or the level left
[21] = target: Non-receptor tyrosine-protein kinase TYK2 (Homo sapiens) (UniProt P29597); assay: Inhibition of human TYK2 (875 to end residues) using GGMEDIYFEFMGGKKK as substrate measured after 40 mins in presence of [gamma33P]ATP by scintillation counting method; parameters: scale not given: the % may be the effect or the level left
[22] = target: DNA-dependent protein kinase catalytic subunit (Homo sapiens) (UniProt P78527); assay: Inhibition of recombinant full-length human DNA-PK assessed as residual activity at 10 uM using GST-cMyc-p53 as substrate measured after 40 mins by fluorescence assay
[23] = tested on: SW-620; assay: Induction of apoptosis in human SW620 cells assessed as early apoptotic cells at 25 nM measured after 48 hrs by Annexin V-FITC/propidium iodide staining-based flow cytometry (reference value: 0.773%); assay type: functional

Cc1cc(C)c(CNc2nc(Cl)nc3c2ncn3C2CCCC2)c(=O)[nH]1 showed an Activity [1] of 97%, an Activity [2] of 102% and an Activity [3] of 96%. The Activity [4] was 106%, the Activity [5] was 97% and the Activity [6] was 102%. The Activity [7] was 104%, the Activity [8] was 109% and the Activity [9] was 98%. The Activity [10] was 101%, the Activity [11] was “Active” and the Activity [12] was 106%. It also gave an Activity [13] of 113%, an Activity [14] of 1.54% and an Activity [15] of 97%. The Activity [16] was 110%, the Activity [17] was 122% and the Activity [18] was 116%. For the same compound, the Activity [19] was 113%, the Activity [20] was 124% and the Activity [21] was 95.5%. The Activity [22] was 99% and the Activity [23] was 1.22%.
